Here are results for 4 compounds from PubChem BioAssay AID1259411 (Chemical Carcinogenesis Research Information System (CCRIS), 2018).

For this data set, the system named is rodent carcinogenicity bioassays, tumor incidence. The data set can be described thus: CCRIS carcinogenicity studies. The method in brief:
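Archive of carcinogenicity, mutagenicity, tumor promotion and tumor inhibition results drawn from journals, NCI reports and other sources, expert-reviewed; covers 1985-2011 and is no longer updated.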

The source made the active and inactive calls. No rule for the calls is given here.

Regarding `CCCCOCCOCCOCc1cc2c(cc1CCC)OCO2`, the carcinogen call runs as follows: (Species: MOUSE, Strain/Sex: B6C3F1/FEMALE, Route: ORAL, Dose: 0, 1036, 2804 PPM IN DIET, TWA, Dose: 0, 1036, 2804 PPM IN DIET, TWA) “inactive; negative”; (Species: MOUSE, Strain/Sex: B6C3F1/MALE, Route: ORAL, Dose: 0, 1036, 2804 PPM IN DIET, TWA, Dose: 0, 1036, 2804 PPM IN DIET, TWA) “inactive; negative”; (Species: MOUSE, Strain/Sex: CD-1/FEMALE, Route: ORAL, Dose: 0, 0.6, 1.2% IN DIET FOR 52 WK (STUDY DURATION: 52 WK), Dose: 0, 0.6, 1.2% IN DIET FOR 52 WK (STUDY DURATION: 52 WK), Tumor Site: Type of Lesion: LIVER: HEPATOCELLULAR ADENOMA, HEPATOCELLULAR CARCINOMA) “active; positive”; (Species: MOUSE, Strain/Sex: CD-1/FEMALE, Route: ORAL, Dose: 0, 30, 100, 300 MG/KG/D IN DIET FOR 79 WK (STUDY DURATION: 79 WK), Dose: 0, 30, 100, 300 MG/KG/D IN DIET FOR 79 WK (STUDY DURATION: 79 WK), Tumor Site: Type of Lesion: LIVER: HEPATOCELLULAR ADENOMA) “active; positive”; (Species: MOUSE, Strain/Sex: CD-1/MALE, Route: ORAL, Dose: 0, 0.6, 1.2% IN DIET FOR 12 MO (STUDY DURATION: 12 MO), Dose: 0, 0.6, 1.2% IN DIET FOR 12 MO (STUDY DURATION: 12 MO), Tumor Site: Type of Lesion: LIVER: HEPATOCELLULAR ADENOMA, HEPATOCELLULAR CARCINOMA, HEMANGIOENDOTHELIAL SARCOMA (SMALL), HEMANGIOENDOTHELIAL SARCOM) “active; positive”; (Species: MOUSE, Strain/Sex: CD-1/MALE, Route: ORAL, Dose: 0, 0.6, 1.2% IN DIET FOR 52 WK (STUDY DURATION: 52 WK), Dose: 0, 0.6, 1.2% IN DIET FOR 52 WK (STUDY DURATION: 52 WK), Tumor Site: Type of Lesion: LIVER: HEPATOCELLULAR ADENOMA, HEPATOCELLULAR CARCINOMA) “active; positive”. For the same compound, the carcinogen call by setting is: (Species: MOUSE, Strain/Sex: CD-1/MALE, Route: ORAL, Dose: 0, 30, 100, 300 MG/KG/D IN DIET FOR 79 WK (STUDY DURATION: 79 WK), Dose: 0, 30, 100, 300 MG/KG/D IN DIET FOR 79 WK (STUDY DURATION: 79 WK), Tumor Site: Type of Lesion: LIVER: HEPATOCELLULAR ADENOMA) “active; positive”; (Species: RAT, Strain/Sex: F344/FEMALE, Route: ORAL, Dose: 0, 0.5, 1% IN DIET FOR 2 YR (STUDY DURATION: 110 WK), Dose: 0, 0.5, 1% IN DIET FOR 2 YR (STUDY DURATION: 110 WK)) “inactive; negative”; (Species: RAT, Strain/Sex: F344/FEMALE, Route: ORAL, Dose: 0, 0.6, 1.2, 2.4% IN DIET FOR 96 WK (STUDY DURATION: 96 WK), Dose: 0, 0.6, 1.2, 2.4% IN DIET FOR 96 WK (STUDY DURATION: 96 WK), Tumor Site: Type of Lesion: LIVER: HEPATOCELLULAR ADENOMA, HEPATOCELLULAR CARCINOMA) “active; positive”; (Species: RAT, Strain/Sex: F344/FEMALE, Route: ORAL, Dose: 0, 5000, 10000 PPM IN DIET, Dose: 0, 5000, 10000 PPM IN DIET) “inactive; negative”; (Species: RAT, Strain/Sex: F344/MALE, Route: ORAL, Dose: 0, 0.5, 1% IN DIET FOR 2 YR (STUDY DURATION: 110 WK), Dose: 0, 0.5, 1% IN DIET FOR 2 YR (STUDY DURATION: 110 WK)) “inactive; negative”; (Species: RAT, Strain/Sex: F344/MALE, Route: ORAL, Dose: 0, 0.6, 1.2, 2.4% IN DIET FOR 95 WK (STUDY DURATION: 95 WK), Dose: 0, 0.6, 1.2, 2.4% IN DIET FOR 95 WK (STUDY DURATION: 95 WK), Tumor Site: Type of Lesion: LIVER: HEPATOCELLULAR ADENOMA, HEPATOCELLULAR CARCINOMA) “active; positive”. For the same compound, the carcinogen call is “inactive; negative” (Species: RAT, Strain/Sex: F344/MALE, Route: ORAL, Dose: 0, 5000, 10000 PPM IN DIET, Dose: 0, 5000, 10000 PPM IN DIET); “inactive; negative” (Species: RAT, Strain/Sex: SPRAGUE-DAWLEY/FEMALE, Route: ORAL, Dose: 0, 30, 100, 500 MG/KG/D IN DIET FOR 104-105 WK (STUDY DURATION: 105 WK), Dose: 0, 30, 100, 500 MG/KG/D IN DIET FOR 104-105 WK (STUDY DURATION: 105 WK)); “inactive; negative” (Species: RAT, Strain/Sex: SPRAGUE-DAWLEY/MALE, Route: ORAL, Dose: 0, 30, 100, 500 MG/KG/D IN DIET FOR 104-105 WK (STUDY DURATION: 105 WK), Dose: 0, 30, 100, 500 MG/KG/D IN DIET FOR 104-105 WK (STUDY DURATION: 105 WK)).

For `CC[C@H]1CCC[C@H](O[C@H]2CC[C@H](N(C)C)[C@@H](C)O2)[C@@H](C)C(=O)C2=C[C@@H]3[C@@H](C=C[C@@H]4C[C@@H](O[C@@H]5O[C@@H](C)[C@H](OC)[C@@H](OC)[C@H]5OC)C[C@@H]34)[C@@H]2CC(=O)O1`, the carcinogen call (Species: MOUSE, Strain/Sex: CD-1/FEMALE, Route: ORAL, Dose: 0, 0.0025, 0.008, 0.024, 0.0008% IN DIET FOR 18 MO (STUDY DURATION: 18 MO), Dose: 0, 0.0025, 0.008, 0.024, 0.0008% IN DIET FOR 18 MO (STUDY DURATION: 18 MO)) was “inactive; negative”; the carcinogen call (Species: MOUSE, Strain/Sex: CD-1/FEMALE, Route: ORAL, Dose: 0.0025, 0.008, 0.036 % IN DIET FOR 18 MO (STUDY DURATION: 18 MO), Dose: 0.0025, 0.008, 0.036 % IN DIET FOR 18 MO (STUDY DURATION: 18 MO)) is “inactive; negative”; the carcinogen call (Species: MOUSE, Strain/Sex: CD-1/MALE, Route: ORAL, Dose: 0, 0.0008, 0.0025, 0.008, 0.024, 0.036% IN DIET FOR 18 MO (STUDY DURATION: 18 MO), Dose: 0, 0.0008, 0.0025, 0.008, 0.024, 0.036% IN DIET FOR 18 MO (STUDY DURATION: 18 MO)) is “inactive; negative”; the carcinogen call (Species: MOUSE, Strain/Sex: CD-1/MALE, Route: ORAL, Dose: 0.0025, 0.008, 0.036 % IN DIET FOR 18 MO (STUDY DURATION: 18 MO), Dose: 0.0025, 0.008, 0.036 % IN DIET FOR 18 MO (STUDY DURATION: 18 MO)) was “inactive; negative”; the carcinogen call (Species: RAT, Strain/Sex: F344/FEMALE, Route: ORAL, Dose: 0.005, 0.02, 0.05, 0.1% IN DIET FOR 24 MO (STUDY DURATION: 24 MO), Dose: 0.005, 0.02, 0.05, 0.1% IN DIET FOR 24 MO (STUDY DURATION: 24 MO)) was “inactive; negative”; the carcinogen call (Species: RAT, Strain/Sex: F344/MALE, Route: ORAL, Dose: 0.005, 0.02, 0.05, 0.1 % IN DIET FOR 24 MO (STUDY DURATION: 24 MO), Dose: 0.005, 0.02, 0.05, 0.1 % IN DIET FOR 24 MO (STUDY DURATION: 24 MO)) was “inactive; negative”.

As for `OC1c2nc3c(ccc4ccccc43)cc2C2OC2C1O` (centres undefined), the carcinogen call reads like this: (Species: MOUSE, Strain/Sex: SWISS/FEMALE, Route: INTRAPERITONEAL, Dose: 0, 1.05 UMOL GIVEN AS 150 NMOL IN 5 µL DMSO WITHIN 24 HR OF BIRTH, 300 NMOL IN 10 µL DMSO ON D 8 OF LIFE, AND 600 NMOL I) “inactive; negative”; (Species: MOUSE, Strain/Sex: SWISS/MALE, Route: INTRAPERITONEAL, Dose: 0, 1.05 UMOL GIVEN AS 150 NMOL IN 5 µL DMSO WITHIN 24 HR OF BIRTH, 300 NMOL IN 10 µL DMSO ON D 8 OF LIFE, AND 600 NMOL I) “inactive; negative”.

Regarding `NC(=O)/C(=C\c1ccc([N+](=O)[O-])o1)c1ccco1`, the carcinogen call runs as follows: (Species: HAMSTER, Strain/Sex: SYRIAN/MALE, Route: ORAL, Dose: 0.25% IN DIET, Tumor Site: Type of Lesion: FORESTOMACH: PAPILLOMA, SQUAMOUS CELL CARCINOMA, BILE DUCT: ADENOMA) “active; positive”; (Species: MOUSE, Strain/Sex: CD-1/MALE,FEMALE, Route: ORAL, Dose: 0.4% IN DIET FOR 18 MO, Tumor Site: Type of Lesion: FORESTOMACH: PAPILLOMA, SQUAMOUS CELL CARCINOMA) “active; positive”; (Species: MOUSE, Strain/Sex: DDY/MALE, Route: ORAL, Dose: 0.25% IN DIET FOR 308 DAYS, Tumor Site: Type of Lesion: FORESTOMACH: SQUAMOUS CELL CARCINOMA) “active; positive”; (Species: MOUSE, Strain/Sex: ICR/MALE,FEMALE, Route: ORAL, Dose: 0.08, 0.4% IN DIET FOR 440 DAYS, Tumor Site: Type of Lesion: FORESTOMACH: PAPILLOMA, SQUAMOUS CELL CARCINOMA) “active; positive”; (Species: RAT, Strain/Sex: WISTAR/FEMALE, Route: ORAL, Dose: 0.08, 0.4% IN DIET FOR 18 MO, Tumor Site: Type of Lesion: MAMMARY GLAND: ADENOCARCINOMA, FORESTOMACH: PAPILLOMA) “active; positive”; (Species: RAT, Strain/Sex: WISTAR/MALE, Route: ORAL, Dose: 0.4% IN DIET FOR 18 MO, Tumor Site: Type of Lesion: FORESTOMACH: PAPILLOMA) “active; positive”.
